Data from ChEMBL document CHEMBL3351875, “Synthesis of Deuterated Benzopyran Derivatives as Selective COX-2 Inhibitors with Improved Pharmacokinetic Properties” (ACS Med Chem Lett, 2014).

How the values were obtained:
[1] = Apparent oral clearance in Sprague-Dawley rat at 10 mg/kg, iv measured during 1 to 24 hrs by LC-MS method; type: ADME, organism-based; design: dose 10 mg/kg, route oral; conditions: in vivo
[2] = Half life in Sprague-Dawley rat at 30 mg/kg, po measured during 1 to 24 hrs by LC-MS method; type: ADME, organism-based; design: dose 30 mg/kg, route oral; conditions: in vivo
[3] = Cmax in Sprague-Dawley rat at 30 mg/kg, po measured during 1 to 24 hrs by LC-MS method; type: ADME, organism-based; design: dose 30 mg/kg, route oral; conditions: in vivo
[4] = Volume of distribution in Sprague-Dawley rat at 10 mg/kg, iv measured during 1 to 24 hrs by LC-MS method; type: ADME, organism-based; design: dose 10 mg/kg, route intravenous; conditions: in vivo
[5] = AUC (0 to infinity) in Sprague-Dawley rat at 30 mg/kg, po measured during 1 to 24 hrs by LC-MS method; type: ADME, organism-based; design: time infinity, dose 30 mg/kg, route oral; conditions: plasma
[6] = Oral bioavailability in Sprague-Dawley rat at 30 mg/kg measured during 1 to 24 hrs by LC-MS method; type: ADME, organism-based; conditions: in vivo
Rattus norvegicus [7] = assay: Half life in Sprague-Dawley rat at 10 mg/kg, iv measured during 1 to 24 hrs by LC-MS method; type: ADME, organism-based; design: dose 10 mg/kg, route intravenous; conditions: in vivo
[8] = Tmax in Sprague-Dawley rat at 30 mg/kg, po measured during 1 to 24 hrs by LC-MS method; type: ADME, organism-based; design: dose 30 mg/kg, route oral; conditions: in vivo
[9] = AUC (0 to infinity) in Sprague-Dawley rat at 10 mg/kg, iv measured during 1 to 24 hrs by LC-MS method; type: ADME, organism-based; design: time infinity, dose 10 mg/kg, route intravenous; conditions: plasma
Rattus norvegicus [10] = assay: Volume of distribution in Sprague-Dawley rat at 30 mg/kg, po measured during 1 to 24 hrs by LC-MS method; type: ADME, organism-based; design: dose 30 mg/kg, route oral; conditions: in vivo
[11] = Cmax in Sprague-Dawley rat at 10 mg/kg, iv measured during 1 to 24 hrs by LC-MS method; type: ADME, organism-based; design: dose 10 mg/kg, route intravenous; conditions: in vivo
[12] = Apparent oral clearance in Sprague-Dawley rat at 30 mg/kg, po measured during 1 to 24 hrs by LC-MS method; type: ADME, organism-based; design: dose 30 mg/kg, route oral; conditions: in vivo
Rattus norvegicus [13] = assay: Half life in Sprague-Dawley rat at 1 mg/kg, iv measured during 1 to 24 hrs by LC-MS method; type: ADME, organism-based; design: dose 1 mg/kg, route intravenous; conditions: in vivo
[14] = AUC (0 to infinity) in Sprague-Dawley rat at 2.5 mg/kg, po measured during 1 to 24 hrs by LC-MS method; type: ADME, organism-based, Plasma; design: dose 2.5 mg/kg, route oral, time infinity; conditions: Sprague-Dawley, plasma
[15] = Apparent oral clearance in Sprague-Dawley rat at 2.5 mg/kg, po measured during 1 to 24 hrs by LC-MS method; type: ADME, organism-based; design: dose 2.5 mg/kg, route oral; conditions: Sprague-Dawley, in vivo
[16] = Cmax in Sprague-Dawley rat at 2.5 mg/kg, po measured during 1 to 24 hrs by LC-MS method; type: ADME, organism-based; design: dose 2.5 mg/kg, route oral; conditions: in vivo
[17] = molecular target: Prostaglandin G/H synthase 1 (Homo sapiens, UniProt P23219); assay: Inhibition of human recombinant COX1 pre-incubated for 15 mins before fluorometric substrate addition by fluorescence based assay
[18] = Cmax in Sprague-Dawley rat at 1 mg/kg, iv measured during 1 to 24 hrs by LC-MS method; type: ADME, organism-based; design: dose 1 mg/kg, route intravenous; conditions: in vivo
[19] = Apparent oral clearance in Sprague-Dawley rat at 1 mg/kg, iv measured during 1 to 24 hrs by LC-MS method; type: ADME, organism-based; design: dose 1 mg/kg, route oral; conditions: in vivo
Rattus norvegicus [20] = assay: Volume of distribution in Sprague-Dawley rat at 2.5 mg/kg, po measured during 1 to 24 hrs by LC-MS method; type: ADME, organism-based; design: dose 2.5 mg/kg, route oral; conditions: in vivo
Rattus norvegicus [21] = assay: Tmax in Sprague-Dawley rat at 2.5 mg/kg, po measured during 1 to 24 hrs by LC-MS method; type: ADME, organism-based; design: dose 2.5 mg/kg, route oral; conditions: in vivo
[22] = AUC (0 to infinity) in Sprague-Dawley rat at 1 mg/kg, iv measured during 1 to 24 hrs by LC-MS method; type: ADME, organism-based, Plasma; design: time infinity, dose 1 mg/kg, route intravenous; conditions: Sprague-Dawley, plasma
[23] = Volume of distribution in Sprague-Dawley rat at 1 mg/kg, iv measured during 1 to 24 hrs by LC-MS method; type: ADME, organism-based; design: dose 1 mg/kg, route intravenous; conditions: in vivo
[24] = molecular target: T1, Prostaglandin G/H synthase 2 (Homo sapiens, UniProt P35354); assay: Inhibition of human recombinant COX2 pre-incubated for 15 mins before fluorometric substrate addition by fluorescence based assay
T1 sequence (P35354 whole entry): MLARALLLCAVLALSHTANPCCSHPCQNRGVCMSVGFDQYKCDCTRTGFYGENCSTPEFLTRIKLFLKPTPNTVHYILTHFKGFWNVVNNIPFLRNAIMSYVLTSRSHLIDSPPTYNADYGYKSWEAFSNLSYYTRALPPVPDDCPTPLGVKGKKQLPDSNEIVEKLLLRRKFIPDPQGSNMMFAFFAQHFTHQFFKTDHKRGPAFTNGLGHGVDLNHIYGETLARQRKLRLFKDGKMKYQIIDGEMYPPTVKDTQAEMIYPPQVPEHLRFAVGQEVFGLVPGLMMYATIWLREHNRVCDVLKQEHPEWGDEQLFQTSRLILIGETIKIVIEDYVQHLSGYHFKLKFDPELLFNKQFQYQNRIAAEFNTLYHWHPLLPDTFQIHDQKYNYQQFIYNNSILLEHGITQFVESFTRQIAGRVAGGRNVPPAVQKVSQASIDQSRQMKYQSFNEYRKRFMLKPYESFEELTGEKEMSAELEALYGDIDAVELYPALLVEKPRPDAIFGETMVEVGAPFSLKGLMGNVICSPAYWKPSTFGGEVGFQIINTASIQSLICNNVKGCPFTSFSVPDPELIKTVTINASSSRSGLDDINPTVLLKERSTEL

[25] = Oral bioavailability in Sprague-Dawley rat at 2.5 mg/kg measured during 1 to 24 hrs by LC-MS method; type: ADME, organism-based; conditions: Sprague-Dawley, in vivo
Rattus norvegicus [26] = assay: Half life in Sprague-Dawley rat at 2.5 mg/kg, po measured during 1 to 24 hrs by LC-MS method; type: ADME, organism-based; design: dose 2.5 mg/kg, route oral; conditions: in vivo
Rattus norvegicus [27] = assay: Half life in Sprague-Dawley rat at 5 mg/kg, po measured during 1 to 24 hrs by LC-MS method; type: ADME, organism-based; design: dose 5 mg/kg, route oral; conditions: in vivo
Rattus norvegicus [28] = assay: Antinociceptive activity in orally dosed Sprague-Dawley rat model of carrageenan-induced foot paw hyperalgesia assessed as paw withdrawal latency; type: functional, organism-based
Rattus norvegicus [29] = assay: Half life in Sprague-Dawley rat at 2.5 mg/kg, iv measured during 1 to 24 hrs by LC-MS method; type: ADME, organism-based; design: dose 2.5 mg/kg, route intravenous; conditions: in vivo
[30] = Oral bioavailability in Sprague-Dawley rat at 5 mg/kg measured during 1 to 24 hrs by LC-MS method; type: ADME, organism-based; conditions: in vivo
[31] = Apparent oral clearance in Sprague-Dawley rat at 2.5 mg/kg, iv measured during 1 to 24 hrs by LC-MS method; type: ADME, organism-based; design: dose 2.5 mg/kg, route oral; conditions: in vivo
[32] = Cmax in Sprague-Dawley rat at 2.5 mg/kg, iv measured during 1 to 24 hrs by LC-MS method; type: ADME, organism-based; design: dose 2.5 mg/kg, route intravenous; conditions: in vivo
[33] = Volume of distribution in Sprague-Dawley rat at 2.5 mg/kg, iv measured during 1 to 24 hrs by LC-MS method; type: ADME, organism-based; design: dose 2.5 mg/kg, route intravenous; conditions: in vivo
Rattus norvegicus [34] = assay: Antiarthritic activity in Lewis rat model of adjuvant-induced arthritis administrated by oral gavage once daily; type: functional; conditions: tested as the 2H-labelled form
Rattus norvegicus [35] = assay: Antiinflammatory activity in orally dosed Sprague-Dawley rat model of carrageenan-induced air pouch inflammation assessed as reduction in PGE2 level by ELISA method; type: functional, organism-based
Rattus norvegicus [36] = assay: AUC (0 to infinity) in Sprague-Dawley rat at 2.5 mg/kg, iv measured during 1 to 24 hrs by LC-MS method; type: ADME, organism-based, Plasma; design: time infinity, dose 2.5 mg/kg, route intravenous; conditions: in vivo
[37] = Cmax in Sprague-Dawley rat at 5 mg/kg, po measured during 1 to 24 hrs by LC-MS method; type: ADME, organism-based; design: dose 5 mg/kg, route oral; conditions: in vivo
Rattus norvegicus [38] = assay: AUC (0 to infinity) in Sprague-Dawley rat at 5 mg/kg, po measured during 1 to 24 hrs by LC-MS method; type: ADME, organism-based, Plasma; design: time infinity, dose 5 mg/kg, route oral; conditions: in vivo
Rattus norvegicus [39] = assay: Antiinflammatory activity in orally dosed Sprague-Dawley rat model of carrageenan-induced foot paw edema assessed as reduction in edema by plethysmometry; type: functional, organism-based
[40] = Apparent oral clearance in Sprague-Dawley rat at 5 mg/kg, po measured during 1 to 24 hrs by LC-MS method; type: ADME, organism-based; design: dose 5 mg/kg, route oral; conditions: in vivo
Rattus norvegicus [41] = assay: Volume of distribution in Sprague-Dawley rat at 5 mg/kg, po measured during 1 to 24 hrs by LC-MS method; type: ADME, organism-based; design: dose 5 mg/kg, route oral; conditions: in vivo
Rattus norvegicus [42] = assay: Tmax in Sprague-Dawley rat at 5 mg/kg, po measured during 1 to 24 hrs by LC-MS method; type: ADME, organism-based; design: dose 5 mg/kg, route oral; conditions: in vivo

Sequence of Prostaglandin G/H synthase 1 (P23219 whole entry): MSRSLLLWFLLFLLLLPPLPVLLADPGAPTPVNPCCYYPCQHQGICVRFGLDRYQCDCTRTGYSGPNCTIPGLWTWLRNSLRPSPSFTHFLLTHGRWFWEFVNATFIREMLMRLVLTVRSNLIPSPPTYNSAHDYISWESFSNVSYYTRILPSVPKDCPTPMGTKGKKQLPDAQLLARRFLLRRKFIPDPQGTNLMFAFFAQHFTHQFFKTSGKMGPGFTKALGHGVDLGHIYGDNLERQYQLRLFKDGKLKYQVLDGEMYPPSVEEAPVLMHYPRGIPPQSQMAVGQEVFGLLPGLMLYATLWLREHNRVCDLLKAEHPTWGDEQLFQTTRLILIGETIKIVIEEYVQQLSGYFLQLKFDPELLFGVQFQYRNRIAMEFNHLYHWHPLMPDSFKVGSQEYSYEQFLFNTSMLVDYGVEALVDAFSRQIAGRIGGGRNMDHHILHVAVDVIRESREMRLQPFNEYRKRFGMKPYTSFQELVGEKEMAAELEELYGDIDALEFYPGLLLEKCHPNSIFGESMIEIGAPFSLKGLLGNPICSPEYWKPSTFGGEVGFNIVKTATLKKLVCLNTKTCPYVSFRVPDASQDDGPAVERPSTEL

[2H]C([2H])([2H])C([2H])([2H])c1cc(OC(F)(F)F)cc2c1OC(C(F)(F)F)C(C(=O)O)=C2 (centres undefined)
CL/F [1]: 0.783 mL/min/kg
half-life [2]: 4.54 h
Cmax [3]: 33500 ng/mL
Vd [4]: 0.39 L/kg
AUC(0-inf) [5]: 403000 ng·h/mL
bioavailability [6]: 60.2%
t1/2 (Rattus norvegicus [7]): 5.946 h
Tmax [8]: 1.25 h
AUC(0-inf) [9]: 223000 ng·h/mL
Vd (Rattus norvegicus [10]): 0.491 L/kg
Cmax [11]: 51600 ng/mL
CL/F [12]: 1.25 mL/min/kg

Cc1cc2c(c(C)c1Br)C=C(C(=O)O)C(C(F)(F)F)O2 (centres undefined)
t1/2 (Rattus norvegicus [13]): 2.3 h
AUC(0-inf) [14]: 12500 ng·h/mL
CL/F [15]: 3.52 mL/min/kg
Cmax [16]: 5340 ng/mL
IC50 [17]: > 100000 nM
Cmax [18]: 16700 ng/mL
CL/F [19]: 1.98 mL/min/kg
Vd (Rattus norvegicus [20]): 1.13 L/kg
Tmax (Rattus norvegicus [21]): 0.375 h
AUC(0-inf) [22]: 8840 ng·h/mL
Vd [23]: 0.38 L/kg
IC50 [24]: 190 nM
bioavailability [25]: 56.7%
t1/2 (Rattus norvegicus [26]): 3.53 h

Cc1cc(Br)cc2c1OC(C(F)(F)F)C(C(=O)O)=C2 (centres undefined)
t1/2 (Rattus norvegicus [27]): 1.51 h
EC50 (Rattus norvegicus [28]): 3.52 mg/kg
t1/2 (Rattus norvegicus [29]): 0.58 h
bioavailability [30]: 46.3%
IC50 [17]: > 100000 nM
CL/F [31]: 2.87 mL/min/kg
Cmax [32]: 38600 ng/mL
Vd [33]: 0.15 L/kg
inhibition (Rattus norvegicus [34]): Dose-dependent effect
EC50 (Rattus norvegicus [35]): 0.47 mg/kg
AUC (Rattus norvegicus [36]): 14843.535 ng·h/mL
Cmax [37]: 11500 ng/mL
IC50 [24]: 28 nM
AUC (Rattus norvegicus [38]): 17190.28 ng·h/mL
EC50 (Rattus norvegicus [39]): 3.47 mg/kg
CL/F [40]: 4.97 mL/min/kg
Vd (Rattus norvegicus [41]): 0.65 L/kg
Tmax (Rattus norvegicus [42]): 0.438 h
